Laboratory results published in ChEMBL document CHEMBL3352350, “Syntheses and structure-activity relationships in cytotoxicities of 13-substituted quaternary coptisine derivatives” (Eur J Med Chem, 2014).

How the values were obtained:
[1] = Cytotoxicity against human Bel7402 cells assessed as growth inhibition rate at 0.1 to 100 umol/L after 96 hrs by MTT assay; assay type: functional, Bel-7402
[2] = Cytotoxicity against human HCT8 cells assessed as growth inhibition rate after 96 hrs by MTT assay; assay type: functional, cell-based; conditions: HCT-8, 96 h
[3] = Cytotoxicity against human HCT8 cells assessed as growth inhibition rate at 0.1 to 100 umol/L after 96 hrs by MTT assay; assay type: functional, HCT-8
[4] = system: A549; assay: Cytotoxicity against human A549 cells assessed as growth inhibition rate after 96 hrs by MTT assay; assay type: functional, cell-based; conditions: A549, 96 h
[5] = Cytotoxicity against human C33A cells assessed as growth inhibition rate at 0.1 to 100 umol/L after 96 hrs by MTT assay; assay type: functional, C-33-A
[6] = Cytotoxicity against human C33A cells assessed as growth inhibition rate after 96 hrs by MTT assay; assay type: functional, cell-based; conditions: C-33-A
[7] = Cytotoxicity against human Bel7402 cells assessed as growth inhibition rate after 96 hrs by MTT assay; assay type: functional, cell-based; conditions: Bel-7402, 96 h
[8] = system: A549; assay: Cytotoxicity against human A549 cells assessed as growth inhibition rate at 0.1 to 100 umol/L after 96 hrs by MTT assay; assay type: functional
[9] = Cytotoxicity against human BGC823 cells assessed as growth inhibition rate after 96 hrs by MTT assay; assay type: functional, cell-based; conditions: BGC-823, 96 h
[10] = system: HCT-8; assay: Ratio of 5-fluorouracil IC50 to compound IC50 for human HCT8 cells assessed as growth inhibition rate after 96 hrs by MTT assay; assay type: functional
[11] = system: Bel-7402; assay: Ratio of 5-fluorouracil IC50 to compound IC50 for human Bel7402 cells assessed as growth inhibition rate after 96 hrs by MTT assay; assay type: functional
[12] = system: A549; assay: Ratio of 5-fluorouracil IC50 to compound IC50 for human A549 cells assessed as growth inhibition rate after 96 hrs by MTT assay; assay type: functional
[13] = system: C-33-A; assay: Ratio of 5-fluorouracil IC50 to compound IC50 for human C33A cells assessed as growth inhibition rate after 96 hrs by MTT assay; assay type: functional

| Structure (SMILES) | growth inhibition (GI) [1] [%] | IC50 [2] | growth inhibition (GI) [3] [%] | IC50 [4] | growth inhibition (GI) [5] [%] | IC50 [6] | IC50 [7] | growth inhibition (GI) [8] [%] | IC50 [9] [µM] | Ratio IC50 [10] | Ratio IC50 [11] | Ratio IC50 [12] | Ratio IC50 [13] |
| --- | --- | --- | --- | --- | --- | --- | --- | --- | --- | --- | --- | --- | --- |
| CCCCCCCCCCCCc1c2[n+](cc3c4c(ccc13)OCO4)CCc1cc3c(cc1-2)OCO3.[Cl-] | 87.63 | 1.03 µM | 91.28 | 0.59 µM | 84.73 | 1.43 µM | 1.32 µM | 94.03 |  |  |  |  |  |
| CCOC(=O)Cc1c2[n+](cc3c4c(ccc13)OCO4)CCc1cc3c(cc1-2)OCO3.[Cl-] | 8.43 | > 10 µM | -9.3 | > 10 µM |  |  | > 10 µM | 1.25 | > 10 |  |  |  |  |
| CCCCCCCCCc1c2[n+](cc3c4c(ccc13)OCO4)CCc1cc3c(cc1-2)OCO3.[Cl-] | 43.46 | > 5 µg/mL | 43.24 | > 5 µg/mL | -16.26 | > 5 µg/mL | > 5 µg/mL | 49.29 |  |  |  |  |  |
| CCCCCCCCCCc1c2[n+](cc3c4c(ccc13)OCO4)CCc1cc3c(cc1-2)OCO3.[Cl-] | 89.98 | 1.81 µM | 71.93 | 1.83 µM | 61.31 | 4.31 µM | 1.43 µM | 75.26 |  |  |  |  |  |
| Cc1ccc(Cc2c3[n+](cc4c5c(ccc24)OCO5)CCc2cc4c(cc2-3)OCO4)cc1.[Cl-] | 12.33 | > 10 µM | 15.16 | > 10 µM |  |  | > 10 µM | 26.58 | > 10 |  |  |  |  |
| [Cl-].c1c2c(cc3c1OCO3)-c1cc3ccc4c(c3c[n+]1CC2)OCO4 [COPTISINE CHLORIDE] | 12.24 | 5.59 µM | 62.06 | > 14.1 µM | -10.71 | > 14.1 µM | > 14.1 µM | 49.91 |  |  |  |  |  |
| CCCCc1c2[n+](cc3c4c(ccc13)OCO4)CCc1cc3c(cc1-2)OCO3.[Cl-] | 21.81 | > 5 µg/mL | 32.57 | > 5 µg/mL | -6.66 | > 5 µg/mL | > 5 µg/mL | 32.79 |  |  |  |  |  |
| CCCCCCCCCCCc1c2[n+](cc3c4c(ccc13)OCO4)CCc1cc3c(cc1-2)OCO3.[Cl-] | 91.22 | 0.82 µM | 92.7 | 0.61 µM | 86.84 | 1.57 µM | 1.22 µM | 94.28 |  | 4 | 2 | 11 | 3 |
| CCCCCCc1c2[n+](cc3c4c(ccc13)OCO4)CCc1cc3c(cc1-2)OCO3.[Cl-] | 74.26 | 6.55 µM | 59.24 | 5.57 µM | 52.51 | > 5 µg/mL | 3.05 µM | 60.71 |  |  |  |  |  |
| Fc1ccc(Cc2c3[n+](cc4c5c(ccc24)OCO5)CCc2cc4c(cc2-3)OCO4)c(F)c1.[Cl-] | 5.45 | > 10 µM | 1.19 | > 10 µM |  |  | > 10 µM | 5.86 | > 10 |  |  |  |  |
| CCOC(=O)c1c2[n+](cc3c4c(ccc13)OCO4)CCc1cc3c(cc1-2)OCO3.[Cl-] | 4.05 | > 10 µM | 4 | > 10 µM |  |  | > 10 µM | 9.7 | > 10 |  |  |  |  |
| FC(F)(F)c1cc(Cc2c3[n+](cc4c5c(ccc24)OCO5)CCc2cc4c(cc2-3)OCO4)cc(C(F)(F)F)c1.[Cl-] | 3.61 | > 10 µM | -5.72 | > 10 µM |  |  | > 10 µM | 3.45 | > 10 |  |  |  |  |
| CCCCCCCCc1c2[n+](cc3c4c(ccc13)OCO4)CCc1cc3c(cc1-2)OCO3.[Cl-] | 89.32 | 3.33 µM | 65.54 | 1.88 µM | 63.28 | 7.31 µM | 1.43 µM | 73.99 |  |  |  |  |  |
| Fc1cccc(Cc2c3[n+](cc4c5c(ccc24)OCO5)CCc2cc4c(cc2-3)OCO4)c1.[Cl-] | 4.06 | > 10 µM | 4.59 | > 10 µM |  |  | > 10 µM | 6.81 | > 10 |  |  |  |  |
| CCCCCc1c2[n+](cc3c4c(ccc13)OCO4)CCc1cc3c(cc1-2)OCO3.[Cl-] | 5.82 | 6.93 µM | 59.02 | > 5 µg/mL | -5.79 | > 5 µg/mL | > 5 µg/mL | 49.34 |  |  |  |  |  |
| Cc1c2[n+](cc3c4c(ccc13)OCO4)CCc1cc3c(cc1-2)OCO3.[Cl-] | 2.43 | > 5 µg/mL | 35.62 | > 5 µg/mL | -7.22 | > 5 µg/mL | > 5 µg/mL | 42.83 |  |  |  |  |  |
| N#Cc1ccc(Cc2c3[n+](cc4c5c(ccc24)OCO5)CCc2cc4c(cc2-3)OCO4)cc1.[Cl-] | 4.03 | > 10 µM | 3.69 | > 10 µM |  |  | > 10 µM | 2 | > 10 |  |  |  |  |
| COc1ccc(Cc2c3[n+](cc4c5c(ccc24)OCO5)CCc2cc4c(cc2-3)OCO4)cc1.[Cl-] | 5.99 | > 10 µM | 10.21 | > 10 µM |  |  | > 10 µM | 11.53 | > 10 |  |  |  |  |
| CCc1c2[n+](cc3c4c(ccc13)OCO4)CCc1cc3c(cc1-2)OCO3.[Cl-] | 10.19 | > 5 µg/mL | 39.7 | > 5 µg/mL | -7.45 | > 5 µg/mL | > 5 µg/mL | 41.74 |  |  |  |  |  |
| CCCc1c2[n+](cc3c4c(ccc13)OCO4)CCc1cc3c(cc1-2)OCO3.[Cl-] | -23.7 | > 5 µg/mL | 40.68 | > 5 µg/mL | -7.69 | > 5 µg/mL | > 5 µg/mL | 45.12 |  |  |  |  |  |
| O=[N+]([O-])c1ccc(Cc2c3[n+](cc4c5c(ccc24)OCO5)CCc2cc4c(cc2-3)OCO4)cc1.[Cl-] | -0.12 | > 10 µM | -3.7 | > 10 µM |  |  | > 10 µM | 2.27 | > 10 |  |  |  |  |
| CCCCCCCc1c2[n+](cc3c4c(ccc13)OCO4)CCc1cc3c(cc1-2)OCO3.[Cl-] | 86.6 | 5.86 µM | 61.02 | 2.58 µM | 63.75 | 6.94 µM | 1.92 µM | 71.89 |  |  |  |  |  |
| C1=C2c3cc4c(cc3CCN2Cc2c1ccc1c2OCO1)OCO4 | 27.27 | > 5 µg/mL | 30.88 | > 5 µg/mL | -10.65 | > 5 µg/mL | > 5 µg/mL | 32.09 |  |  |  |  |  |
| CC(C)CCc1c2[n+](cc3c4c(ccc13)OCO4)CCc1cc3c(cc1-2)OCO3.[Cl-] | -2.18 | > 5 µg/mL | 30.75 | > 5 µg/mL | 48.99 | > 5 µg/mL | > 5 µg/mL | 38.49 |  |  |  |  |  |
| Fc1ccccc1Cc1c2[n+](cc3c4c(ccc13)OCO4)CCc1cc3c(cc1-2)OCO3.[Cl-] | 6.94 | > 10 µM | 26.26 | > 10 µM |  |  | > 10 µM | 18.8 | > 10 |  |  |  |  |
| [Cl-].c1ccc2cc(Cc3c4[n+](cc5c6c(ccc35)OCO6)CCc3cc5c(cc3-4)OCO5)ccc2c1 | 11.78 | > 10 µM | 8.33 | > 10 µM |  |  | > 10 µM | 32.22 | > 10 |  |  |  |  |
| O=c1[nH]cc(F)c(=O)[nH]1 [FLUOROURACIL] | 78.43 | 3.54 µM | 80.36 | 6.69 µM | 56.06 | 4.61 µM | 2.23 µM | 72.25 |  |  |  |  |  |
| FC(F)(F)c1cccc(Cc2c3[n+](cc4c5c(ccc24)OCO5)CCc2cc4c(cc2-3)OCO4)c1.[Cl-] | 5.98 | > 10 µM | -1.37 | > 10 µM |  |  | > 10 µM | 7.78 | > 10 |  |  |  |  |
